Assay results as given in US20250221966A1, “RXFP1 AGONISTS” (BRISTOL-MYERS SQUIBB COMPANY, priority 2021, published 2025).
Where a name gives a salt, the structure may show the parent alone.

Target: T1, human RXFP1 (Homo sapiens, UniProt Q9HBX9)
T1 construct: expressed in transfected cells
T1 sequence (Q9HBX9 1-757): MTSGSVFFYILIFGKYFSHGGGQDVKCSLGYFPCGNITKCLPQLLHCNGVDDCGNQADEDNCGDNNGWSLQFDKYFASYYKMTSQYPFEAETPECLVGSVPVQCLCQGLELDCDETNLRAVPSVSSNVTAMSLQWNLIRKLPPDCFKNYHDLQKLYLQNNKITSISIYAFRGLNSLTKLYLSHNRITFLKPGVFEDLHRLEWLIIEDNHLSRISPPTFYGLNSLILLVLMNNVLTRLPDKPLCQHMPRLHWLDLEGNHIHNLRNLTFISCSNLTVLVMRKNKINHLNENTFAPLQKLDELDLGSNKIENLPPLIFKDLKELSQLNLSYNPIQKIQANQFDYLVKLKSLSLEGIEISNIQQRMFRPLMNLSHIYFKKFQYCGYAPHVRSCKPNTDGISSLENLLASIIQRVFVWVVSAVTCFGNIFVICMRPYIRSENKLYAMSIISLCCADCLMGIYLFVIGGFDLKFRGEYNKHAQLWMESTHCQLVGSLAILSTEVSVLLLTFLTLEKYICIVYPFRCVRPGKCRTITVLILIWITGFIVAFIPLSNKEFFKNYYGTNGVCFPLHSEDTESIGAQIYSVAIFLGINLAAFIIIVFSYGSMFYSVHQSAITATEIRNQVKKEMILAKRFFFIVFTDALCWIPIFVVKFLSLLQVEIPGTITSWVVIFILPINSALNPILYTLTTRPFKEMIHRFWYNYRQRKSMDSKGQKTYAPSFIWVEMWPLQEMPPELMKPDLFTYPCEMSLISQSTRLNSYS
Test: RXFP1 cAMP assay (hRXFP1 HEK293 cAMP assay, HTRF)
Type: cell-based
Settings: HEK293 cells stably expressing human RXFP1, 30 min at room temperature, read-out: cAMP hRXFP1 HEK293 Assay EC50
Experimental: RXFP1 Cyclic Adenosine Monophosphate (cAMP) Assays. […] Cells were dissociated and suspended in assay buffer. The assay buffer was HBSS buffer (with calcium and magnesium) containing 20 mM HEPES, 0.05% BSA, and 0.5 mM IBMX. Cells (3000 cells per well, except 1500 cell per well for HEK293 cells stably expressing human RXFP1) were added to 384-well Proxiplates (Perkin-Elmer). Cells were immediately treated with test compounds in DMSO (2% final) at final concentrations in the range of 0.010 nM to 50 μM. Cells were incubated for 30 min at room temperature. The level of intracellular cAMP was determined using the HTRF HiRange cAMP assay reagent kit (Cisbio) according to manufacturer's instructions. Solutions of cryptate conjugated anti-cAMP and d2 fluorophore-labelled cAMP were made in a supplied lysis buffer separately. Upon completion of the reaction, the cells were lysed with equal volume of the d2-cAMP solution and anti-cAMP solution. […] The potency and activity of a compound to […] cAMP production was then determined by fitting to a 4-parametric logistic equation from a plot of cAMP level versus compound concentrations.

Row | SMILES | EC50
1 | COc1ccc(-c2ccc(C3=NOC(CO)C3)cc2F)cc1C(=O)N[C@@H]1C2CCC(/C2=C/C2CCCC2)[C@@H]1C(=O)Nc1ccc(F)c(C(F)(F)F)c1 (stereo partly shown) [compound 897] | 1 nM
2 | COc1ccc(C2=NOC3CC(CO)CC23)cc1C(=O)N[C@H]1[C@@H](C(=O)Nc2ccc(F)c(C(F)(F)F)c2)[C@H]2CC[C@@H]1/C2=C\C1CC1 (stereo partly drawn) [Example 429, (1R,2S,3R,4R,Z)-7-(cyclopropylmethylene)-N-(4-fluoro-3-(trifluoromethyl)phenyl)-3-(5-(5-(hydroxymethyl)-3a,5,6,6a-tetrahydro-4H-cyclopenta[d]isoxazol-3-yl)-2-methoxybenzamido)bicyclo[2.2.1]heptane-2-carboxamide] | 2 nM
3 | COc1ccc(C2=NOC(C3(O)CC3)C2)cc1C(=O)N[C@H]1[C@@H](C(=O)Nc2ccc(F)c(C(F)(F)F)c2)[C@H]2CC[C@@H]1/C2=C\C1CC1 (single isomer, unassigned) [compound 491] | 8.7 nM
4 | COc1c(F)cc(C2=NOC3CC(CO)CC23)cc1C(=O)N[C@H]1[C@@H](C(=O)N[C@H](C)C2(C(F)(F)F)CC2)[C@H]2CC[C@@H]1/C2=C\C1CC1 (stereo partly shown) [compound 869] | 1.4 nM
5 | COc1ccc(C2=CCCN(CC(=O)O)C2)cc1C(=O)N[C@H]1[C@@H](C(=O)Nc2ccc(F)c(C(F)(F)F)c2)[C@H]2CC[C@@H]1/C2=C\C1CC1 [Example 259, 2-(5-(3-(((1R,2R,3S,4R,Z)-7-(cyclopropylmethylene)-3-((4-fluoro-3-(trifluoromethyl)phenyl)carbamoyl)bicyclo[2.2.1]heptan-2-yl)carbamoyl)-4-methoxyphenyl)-3,6-dihydropyridin-1(2H)-yl)acetic acid] | 815 nM
6 | O=C(NC1CCC1)OC(c1ccc(F)c(-c2ccc(OCCO)c(C(=O)N[C@H]3[C@@H](C(=O)Nc4ccc(F)c(C(F)(F)F)c4)[C@H]4CC[C@@H]3/C4=C\C3CC3)c2)c1)C(F)(F)F (stereo partly drawn) [Example 253, 1-(3′-(((1R,2R,3S,4R,Z)-7-(cyclopropylmethylene)-3-((4-fluoro-3-(trifluoromethyl)phenyl)carbamoyl)bicyclo[2.2.1]heptan-2-yl)carbamoyl)-6-fluoro-4′-(2-hydroxyethoxy)-[1,1′-biphenyl]-3-yl)-2,2,2-trifluoroethyl cyclobutylcarbamate] | 17 nM
7 | COc1ccc(C2CN(C(=O)N3CCC(O)CC3)C2)cc1C(=O)N[C@H]1[C@@H](C(=O)Nc2ccc(F)c(C(F)(F)F)c2)[C@H]2CC[C@@H]1/C2=C\C1CC1 [compound 527] | 22.4 nM
8 | COc1ccc(-c2cc(C(OC(=O)NC3CCC3)C(F)(F)F)ccc2F)cc1C(=O)N[C@@H]1C2CCC(/C2=C/C2CC2)[C@@H]1C(=O)Nc1ccc(F)c(C(F)(F)F)c1 (stereo partly shown) [compound 221] | 26 nM
9 | COc1ccc(C2=NOC(C3(O)CCCCC3)C2)cc1C(=O)N[C@H]1[C@@H](C(=O)Nc2ccc(F)c(C(F)(F)F)c2)[C@H]2CC[C@@H]1/C2=C\C1CC1 (single isomer, unassigned) [compound 615] | 139 nM
10 | COc1ccc(-c2cc(C(C)CC(=O)O)ccc2F)cc1C(=O)N[C@H]1[C@@H](C(=O)Nc2ccc(F)c(C(F)(F)F)c2)[C@H]2CC[C@@H]1/C2=C\C1CC1 (stereo partly shown) [compound 887] | 5.5 nM
11 | COc1ccc(-n2nccc2C(=O)O)cc1C(=O)N[C@@H]1C2CCC(/C2=C/C(F)(F)F)[C@@H]1C(=O)Nc1ccc(F)c(C(F)(F)F)c1 (stereo partly shown) [compound 345] | 1400 nM
12 | COc1c(F)cc(C2=NOC3CC(CO)CC23)cc1C(=O)N[C@H]1[C@@H](C(=O)NC23CC(C#N)(C2)C3)[C@H]2CC[C@@H]1/C2=C\C1CC1 (stereo partly shown) [compound 775] | 4.4 nM
13 | CCCC#C/C=C1\C2CCC1[C@H](C(=O)Nc1ccc(F)c(C(F)(F)F)c1)[C@@H]2NC(=O)c1cc(F)c(F)cc1OC (stereo partly shown) [compound 135] | 370 nM
14 | COc1ccc(C2=NOC3COCC23)cc1C(=O)N[C@H]1[C@@H](C(=O)Nc2ccc(F)c(C(F)(F)F)c2)[C@H]2CC[C@@H]1/C2=C\c1csc(C)n1 (stereo partly shown) [compound 806] | 4.9 nM
15 | CCCCNC(=O)[C@@H]1[C@H](NC(=O)c2cc(C3=NOC4COCC34)ccc2OC)[C@@H]2CC[C@H]1/C2=C/C1CC1 (stereo partly shown) [compound 614] | 138 nM
16 | COc1ccc(C#N)cc1C(=O)N[C@H]1[C@@H](C(=O)Nc2ccc(F)c(C(F)(F)F)c2)[C@H]2CC[C@@H]1C2=C(C)C [compound 99] | 540 nM

Row | SMILES | EC50
17 | COc1ccc(N2CCCC(CO)C2)cc1C(=O)N[C@@H]1C2CCC(/C2=C/C2CC2)[C@@H]1C(=O)Nc1ccc(F)c(C(F)(F)F)c1 (single isomer, unassigned) [compound 704] | 1300 nM
18 | COc1ccc(-c2ccncc2OC)cc1C(=O)N[C@H]1[C@@H](C(=O)Nc2ccc(F)c(C(F)(F)F)c2)[C@H]2CC[C@@H]1C2=C(C)C [compound 89] | 330 nM
19 | COc1ccc(-c2cc([C@@H](C)O)on2)cc1C(=O)N[C@H]1[C@@H](C(=O)Nc2ccc(F)c(C(F)(F)F)c2)[C@H]2CC[C@@H]1/C2=C\C1CC1 [compound 500] | 11 nM
20 | COc1ccc(-c2cc(C3=NOC4CC(CO)CC34)ccc2F)cc1C(=O)N[C@H]1[C@@H](C(=O)Nc2ccc(F)c(C(F)(F)F)c2)[C@H]2CC[C@@H]1/C2=C\C1CCCC1 (stereo partly shown) [compound 951] | 1 nM
21 | COc1ccc(-c2ccc(N3CCOCC3)c(C(=O)O)c2)cc1C(=O)N[C@H]1[C@@H](C(=O)Nc2ccc(F)c(C(F)(F)F)c2)[C@H]2CC[C@@H]1/C2=C\C1CC1 [Example 249, 3′-(((1R,2R,3S,4R,Z)-7-(cyclopropylmethylene)-3-((4-fluoro-3-(trifluoromethyl)phenyl)carbamoyl)bicyclo[2.2.1]heptan-2-yl)carbamoyl)-4′-methoxy-4-morpholino-[1,1′-biphenyl]-3-carboxylic acid, TFA] | 5 nM
22 | COc1ccc(C2=NOC3CS(=O)(=O)CC23)cc1C(=O)N[C@@H]1C2CCC(/C2=C/C2CC2)[C@@H]1C(=O)Nc1ccc(F)c(C(F)(F)F)c1 (mixture of isomers) [Example 442, (1R,2S,3R,4R,Z)-7-(cyclopropylmethylene)-3-(5-(5,5-dioxido-3a,4,6,6a-tetrahydrothieno[3,4-d]isoxazol-3-yl)-2-methoxybenzamido)-N-(4-fluoro-3-(trifluoromethyl)phenyl)bicyclo[2.2.1]heptane-2-carboxamide] | 25 nM
23 | COc1ccc(C2=NOC(CC(C)(C)O)C2)cc1C(=O)N[C@H]1[C@@H](C(=O)NCC(C)(C)C)[C@H]2CC[C@@H]1/C2=C\C1CC1 (stereo partly shown) [compound 660] | 350 nM
24 | COc1c(F)cc(C2=NOC3CC(CO)CC23)cc1C(=O)N[C@H]1[C@@H](C(=O)Nc2ccc(F)c(C(F)(F)F)c2)[C@H]2CC[C@@H]1/C2=C\CC(C)C (stereo partly shown) [compound 796] | 3.7 nM
25 | COc1ccc(-c2cc(C3=NOC4CC(CO)CC34)ccc2F)cc1C(=O)N[C@H]1[C@@H](C(=O)Nc2ccc(F)c(C(F)(F)F)c2)[C@H]2CC[C@@H]1/C2=C\C1CCCC1 (stereo partly shown) [compound 950] | 4.9 nM
26 | COc1ccc([C@@H]2CO[C@H]3[C@@H]2OC[C@@H]3O)cc1C(=O)N[C@H]1[C@@H](C(=O)Nc2ccc(F)c(C(F)(F)F)c2)[C@H]2CC[C@@H]1/C2=C\C1CC1 [Example 536, (1R,2S,3R,4R,Z)-7-(cyclopropylmethylene)-N-(4-fluoro-3-(trifluoromethyl)phenyl)-3-(5-((3R,3aR,6S,6aR)-6-hydroxyhexahydrofuro[3,2-b]furan-3-yl)-2-methoxybenzamido)bicyclo[2.2.1]heptane-2-carboxamide] | 24.7 nM
27 | COc1c(F)cc(C2=NOC3CC(CO)CC23)cc1C(=O)N[C@H]1[C@@H](C(=O)NC23CC(C)(C2)C3)[C@H]2CC[C@@H]1/C2=C\C1CC1 (stereo partly shown) [compound 773] | 3.9 nM
28 | COc1ccc(-c2cccc(S(C)(=O)=O)c2)cc1C(=O)N[C@H]1[C@@H](C(=O)Nc2ccc(F)c(C(F)(F)F)c2)[C@H]2CC[C@@H]1/C2=C\C1CC1 [compound 898] | 3.9 nM
29 | COc1ccc(-c2cc([C@H](OC(=O)NC3CCC3)C(F)(F)F)ccc2F)cc1C(=O)N[C@@H]1C2CCC(/C2=C/C2CCC2)[C@@H]1C(=O)Nc1ccc(F)c(C(F)(F)F)c1 (stereo partly shown) [compound 924] | 5.7 nM
30 | COc1ccc(-c2cccnc2F)cc1C(=O)N[C@H]1[C@@H](C(=O)Nc2ccc(F)c(C(F)(F)F)c2)[C@H]2CC[C@@H]1/C2=C/c1ccccc1 [compound 95] | 420 nM
31 | COc1cc(F)c(F)cc1C(=O)NC1C2CCC(C2=Cc2ncco2)C1C(=O)Nc1ccc(F)c(C(F)(F)F)c1 (stereo not shown) [Example 145] | 1300 nM
